Reference: patent publication US9989535B2, “Methods and reagents for analyzing protein-protein interfaces” (Warp Drive Bio, Inc., priority 2015, dated 2018)

Tests used:
MCL1S245C/FKBP52 = MCL1S245C/FKBP52 (Homo sapiens, UniProt Q02790+Q07820, C286S/S245C); assay: Crystal structure of MCL1S245C/C3SLF/FKBP52 ternary complex; settings: 3.0 Å
Experimental: Experimental Protocol: […] and FKBP52 were mixed with MCL1[…] lite at 3:1 molar excess in 12.5 mM HEPES pH 7.4, 75 mM NaCl buffer, 2% DMSO, and incubated 24-48 hours at 4° C. Pure complex was isolated by size exclusion chromatography on a Superdex 75 column in 12.5 mM HEPES pH 7.4 and 75 mM NaCl. Purified complex (at 15 mg/ml) was subjected to crystallization screening at 20° C. using sitting drop vapor diffusion method. Crystals were grown in a well solution containing 2.1 M Malic acid. For data collection, crystals were transferred to a solution containing mother liquor supplemented with 20% glycerol, and then flash-frozen in liquid nitrogen. 3.0 Å resolution diffraction dataset was measured at the Advanced Photon Source (APS) and processed with the XDS program. Molecular replacement solutions were obtained using the program PHASER in the CCP4 suite, using the published structure of FKBP52 (PDB-ID 1N1A) and […] (PDB-ID 3MK8) as search models. Subsequent model building and refinement were performed according to standard protocols with the software packages CCP4 and COOT.

FKBP12-PTP1BS187C = biological target: T1, FKBP12-PTP1BS187C (Homo sapiens, UniProt P18031+P62942, C121S/C32S/C92V/S187C); assay: Crystal structure of FKBP12-C3SLF-PTP1BS187C ternary complex
T1 construct: residues 1-293 containing C32S/C92V/C121S/S187C; made in house
Experimental: Experimental Protocol: […] and FKBP12 were added to PTP1B[…] lite at 3:1 molar excess in 12.5 mM HEPES pH 7.4, 75 mM NaCl buffer, 4% DMSO, and incubated 36-72 hours at 4° C. Pure complex was isolated by size exclusion chromatography on a Superdex 75 column in 12.5 mM HEPES pH 7.4 and 75 mM NaCl. Purified complex (at 15 mg/ml) was subjected to crystallization screening at 20° C. using sitting drop vapor diffusion method. Crystals were grown in a well solution containing 0.2 M Magnesium Acetate, 20% w/v PEG 3350. For data collection, crystals were transferred to a solution containing mother liquor supplemented with 25% PEG400, and then frozen in liquid nitrogen. Diffraction datasets were collected at the Advanced Photon Source (APS) and processed with the XDS program. Molecular replacement solutions were obtained using the program PHASER in the CCP4 suite, using the published structure of FKBP12 (PDB-ID 2PPN) and PTP1B (PDB-ID 2NT7) as search models. Subsequent model building and refinement were performed according to standard protocols with the software packages CCP4 and COOT.

KRASGTP/G12C [1] = biological target: T2, KRASGTP/G12C (Homo sapiens, UniProt P01116+P62942, G12C); assay: Cross-linking gel shift assay (12% SDS-PAGE), with or without FKBP12; format: binding; settings: 60 μM KRAS, 180 μM FKBP12, 180 μM ligand, quenched by MMTS
T2 construct: KRASGTP/G12C (in-house, residues 1-169); made in house
Experimental: In parallel to mass spectrometry analysis, cross-linking reactions with C3- or C4-SLF were subjected to gel shift assay using 12% SDS-PAGE in the presence or absence of FKBP12 at the same experimental condition described above except that cross-linking reactions were set up at higher concentrations (60 μM KRAS, 180 μM FKBP12, and 180 μM C3- or C4-SLF) and they were quenched by MMTS to terminate the reaction.

PTP1BS187C lite/FKBP12 = biological target: T3, PTP1BS187C lite/FKBP12 (Homo sapiens, UniProt P18031+P62942, C121S/C32S/C92V/S187C); assay: Ternary complex formation by SEC and SDS-PAGE; format: binding; settings: SEC profile and SDS-PAGE of elution peaks
T3 construct: residues 1-293 containing C32S/C92V/C121S/S187C; made in house
Experimental: A 1:2:2 molar ratio of compound, presenter protein, and target protein are mixed together in 12.5 mM HEPES pH 7.4, 75 mM NaCl buffer containing 2% DMSO. The reaction is incubated at 37° C. for 30 min, followed by overnight incubation at room temperature. Pure complex is isolated by Size Exclusion Chromatography (SEC) purification. The reaction mixture is directly injected on a Superdex 75 column (CV 120 mL) pre-equilibrated with buffer containing 12.5 mM HEPES pH 7.4, 75 mM NaCl. Complex elutes at a higher molecular weight than unreacted target protein and presenter protein. To confirm presence of complex in the elution peak, samples are assessed by SDS-PAGE.
Experimental Protocol: A 1:3:3 molar ratio of C3-SLF, FKBP12, and PTP1BS187C lite are mixed together in 12.5 mM HEPES pH 7.4, 75 mM NaCl buffer containing 4% DMSO. The reaction is incubated at 37° C. for 30 min, followed by overnight incubation at room temperature. Pure complex is isolated by Size Exclusion Chromatography (SEC) purification. The reaction mixture is directly injected on a Superdex 75 column (CV 120 mL) pre-equilibrated with buffer containing 12.5 mM HEPES pH 7.4, 75 mM NaCl. […] To confirm the presence of PTP1BS187C lite and FKBP12 in the elution peak, samples are also assessed by SDS-PAGE. […]

KRASGTP/G12C [2] = biological target: T2, KRASGTP/G12C; assay: Disulfide cross-linking efficiency by mass spectrometry, with or without FKBP12; format: binding; settings: 2 μM KRAS, 10 μM ligand, 4 hours RT, MS
Experimental: Experimental protocol: In order to follow the kinetics of disulfide crosslinking reactions, Agilent 6230 TOF-LC/MS and Agilent 1260 HPLC instruments employing a AdvanceBio RP-mAb C4 column (2.1×100 mm, 3.5 μm) and equipped with an auto-sampler were used. HPLC grade acetonitrile and water (each containing 1.0 mM ammonium formate and 1% formic acid by volume) were used as mobile phase with the following ramp: 0.6 ml/min flow rate, water:acetonitrile=95:5 from 0.0 to 13.0 min ramping to water:acetonitrile=5:95 from 13.0 to 17.0 min. Total time=17.0 min.
All crosslinking reactions were performed in 1.5 mL amber colored glass vials equipped with 0.5 mL glass inserts. A water-soluble peptide (SEQ ID NO: 1: […]) was employed as an internal standard. Although the actual sequence of the internal standard is inconsequential, choice of amino acid residues were critical to avoid interference in the crosslinking assays. […] All reactions and standard solutions were prepared in HEPES (pH 7.4, 1.0 mM MgCl2) buffer.
Prior to every reaction, a standard curve was obtained for the individual components using a series of standard solutions (an example of standard curve analysis for FKBP12 is shown in Table 3 below). Using the data from standard curve, μmol of protein samples were plotted against the ratio of areas (sample:std) and a linear fit (y=mx+c) was employed to obtain the slope and intercept. The value of slope and intercept involved in these standard curves were accounted for during evaluation of the substrate and product concentration before and during the course of the reaction. For every substrate/product, an initial injection was followed up by a blank injection to verify presence of any residual protein/reagents. Based on this analysis the sequence of auto-sampler can be adjusted to included appropriate number of blank injections for removal of residual components, if any. The MS spectra were analyzed using Agilent MassHunter v B.07.0 software.
In a representative experiment to assess the presenter dependency of ligand cross-linking on the target protein, KRASGTP/G12C and either C3- or C4-SLF ligand were incubated in the presence or absence of FKBP12 at concentrations of 2 μM KRAS, 10 μM FKBP12, 10 μM C3- or C4-SLF for 4 hours at room temperature in 12.5 mM HEPES pH 7.4, 75 mM NaCl, 1 mM MgCl2, 3% DMSO. Analysis of the amount of KRAS undergoing disulfide cross-linking with the ligand using the method above.

T1 sequence (P18031 1-293 C32S/C92V/C121S/S187C limits assumed): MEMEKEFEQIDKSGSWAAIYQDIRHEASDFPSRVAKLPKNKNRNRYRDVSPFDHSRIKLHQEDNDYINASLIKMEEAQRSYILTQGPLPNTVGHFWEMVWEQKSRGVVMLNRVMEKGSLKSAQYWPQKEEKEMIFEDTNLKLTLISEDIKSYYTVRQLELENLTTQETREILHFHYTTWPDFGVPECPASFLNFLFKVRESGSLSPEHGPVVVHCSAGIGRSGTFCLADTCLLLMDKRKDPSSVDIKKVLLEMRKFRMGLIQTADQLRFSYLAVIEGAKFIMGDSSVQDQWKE
T1 sequence (P62942 whole entry, the tested form may be a part): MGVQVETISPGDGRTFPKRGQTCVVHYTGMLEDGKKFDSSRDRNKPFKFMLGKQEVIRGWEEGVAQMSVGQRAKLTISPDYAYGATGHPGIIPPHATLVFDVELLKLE
T3 sequence (P18031 1-293 C32S/C92V/C121S/S187C limits assumed): as the sequence (P18031 1-293 C32S/C92V/C121S/S187C limits assumed) above
T3 sequence (P62942 whole entry, the tested form may be a part): as the sequence (P62942 whole entry, the tested form may be a part) above
Chain of MCL1S245C/FKBP52 (Q07820 172-327 S245C/C286S): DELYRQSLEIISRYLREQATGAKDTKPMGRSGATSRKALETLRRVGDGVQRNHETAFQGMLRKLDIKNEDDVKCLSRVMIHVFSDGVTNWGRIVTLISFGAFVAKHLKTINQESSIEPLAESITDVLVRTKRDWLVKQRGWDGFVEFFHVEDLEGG
Chain of MCL1S245C/FKBP52 (Q02790 1-140): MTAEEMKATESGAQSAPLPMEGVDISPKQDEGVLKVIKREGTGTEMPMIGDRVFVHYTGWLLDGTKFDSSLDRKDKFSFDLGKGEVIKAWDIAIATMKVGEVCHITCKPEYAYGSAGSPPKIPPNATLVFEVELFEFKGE

CCC(C)(C)C(=O)C(=O)N1CCCC[C@H]1C(=O)O[C@H](CCc1ccc(OC)c(OC)c1)c1cccc(NC(=O)CCSSc2ccccn2)c1 [Compound C3-SLF, (R)-3-(3,4-dimethoxyphenyl)-1-(3-(3-(pyridin-2-yldisulfanyl)propanamido)phenyl)propyl (S)-1-(3,3-dimethyl-2-oxopentanoyl)piperidine-2-carboxylate]
Buried surface area of the complex contributed by ligand (MCL1S245C/FKBP52): 606 Å2 | Buried surface area of ligand (FKBP12-PTP1BS187C): 615 Å^2 | Ligand cross-linking efficiency in the presence of FKBP12, gel shift (KRASGTP/G12C [1]): boosted significantly | Formation of PTP1BS187C lite/C3-SLF/FKBP12 complex (PTP1BS187C lite/FKBP12): confirm the formation | % × link to KRAS (KRASGTP/G12C [2]; FKBP12 absent (−)): 9.6% | % × link to KRAS (KRASGTP/G12C [2]; FKBP12 present (+) 10 μM): 47.5%
